Reference: patent US4205069A, “Dipeptide narcotic antagonists” (American Home Products Corporation, priority 1978, dated 1980)

How the values were obtained:
[1] = test system: analgesia produced by intraventricular HTyr-D-Ala-Gly-Phe-D-Leu-NH2; assay: Antagonism of enkephalin analog-induced analgesia, tail-flick test; format: in vivo, rat; settings: rats, HTyr-D-Ala-Gly-Phe-D-Leu-NH2 1 μg intraventricular
Experimental: (§1) Duration of analgesia may conveniently be determined by testing for analgesia at regular intervals using a modification of the procedure of D'Amour and Smith, J. Pharmacol., 72, 74 (1941), the tail-flick test. In this test, the existence of analgesia in a rat is determined by measuring the increase in the latency period during which a rat will tolerate a high intensity light beam shining on the tip of its tail.
^a The procedure is the same as in Example 11 except that analgesia
was produced by an intraventricular injection of
HTyr-D-Ala-Gly-Phe-D-Leu-NH2, 1 μg. in 10 μ1. of Ringers
^b The duration score was the same as in Table 1.

[2] = test system: morphine-induced analgesia; assay: Antagonism of morphine-induced analgesia, tail-flick test; format: in vivo, rat; settings: rats, tail-flick latency >8 sec
Experimental: as §1
^a All rats were tested at 5minute intervals in the tailflick test
until latencies of 2 to 5 sec. were obtained on three consecutive trials.
All rats then received an injection of morphine sulfate (as indicated in
the table) and were returned to the tailflick test until three consecutiv
trials with no movement of the tail for 8 seconds were obtained. The rats
then received a subcutaneous injection of the test compound, or a control
injection, and were returned to the tailflick test to determine the
^b The duration score is the number of minutes the animal was
completely analgesic (tailflick latency >8 sec.) following injection of […]

[3] = morphine sulfate 2.5 mg/kg subcutaneously, test compound 2.5 mg/kg s.c.
[4] = morphine sulfate 2.5 mg/kg subcutaneously, test compound 5 mg/kg s.c.
[5] = morphine sulfate 5 mg/kg intraperitoneally, test compound 5 mg/kg s.c.

Compound	Mean Duration of Analgesia ([1]; test compound 5 mg/kg s.c.) [min]	Mean Duration of Analgesia ([2]; morphine sulfate 2.5 mg/kg subcutaneously, test compound 1 mg/kg s.c.) [min]	Mean Duration of Analgesia [2, 3] [min]	Mean Duration of Analgesia [2, 4] [min]	Mean Duration of Analgesia [2, 5] [min]	Mean Duration of Analgesia ([1]; test compound 1.25 mg/kg s.c.) [min]	Mean Duration of Analgesia ([1]; test compound 10 mg/kg s.c.) [min]	Mean Duration of Analgesia ([2]; morphine sulfate 5 mg/kg intraperitoneally, test compound 2.5 mg/kg s.c.) [min]
C[C@@H](NC(=O)[C@@H](N)Cc1ccc(O)cc1)C(N)=O [H-Tyr-D-Ala-NH2]	31.0	> 90.00	55.00	40.00	41.67	–	–	–
COC(=O)[C@@H](C)NC(=O)[C@@H](N)Cc1ccc(O)cc1 [H-Tyr-D-Ala-O-Me, H-Tyr-D-Ala-OMe]	5.0	–	45.00	61.67	27.50	20.0	50.0	37.50
